Data on 17 molecules can be found in US10065963B2 (Incyte Corporation, priority 2015, dated 2018).

The structures appear in SMILES notation. Where a name gives a salt, the structure may show the parent alone. Read-outs that look alike come from different tables or passages of the source.

For assay [1], the target named is PI3Kγ (p110γ) Recombinant Human Protein (Homo sapiens (Human), UniProt P48736). The assay is described as follows: PI3K-γ scintillation proximity assay. The class given is biochemical. The conditions noted are these: 2 μM ATP, 20 μM PIP2.
Chain of PI3Kγ (p110γ) Recombinant Human Protein (P48736 whole entry): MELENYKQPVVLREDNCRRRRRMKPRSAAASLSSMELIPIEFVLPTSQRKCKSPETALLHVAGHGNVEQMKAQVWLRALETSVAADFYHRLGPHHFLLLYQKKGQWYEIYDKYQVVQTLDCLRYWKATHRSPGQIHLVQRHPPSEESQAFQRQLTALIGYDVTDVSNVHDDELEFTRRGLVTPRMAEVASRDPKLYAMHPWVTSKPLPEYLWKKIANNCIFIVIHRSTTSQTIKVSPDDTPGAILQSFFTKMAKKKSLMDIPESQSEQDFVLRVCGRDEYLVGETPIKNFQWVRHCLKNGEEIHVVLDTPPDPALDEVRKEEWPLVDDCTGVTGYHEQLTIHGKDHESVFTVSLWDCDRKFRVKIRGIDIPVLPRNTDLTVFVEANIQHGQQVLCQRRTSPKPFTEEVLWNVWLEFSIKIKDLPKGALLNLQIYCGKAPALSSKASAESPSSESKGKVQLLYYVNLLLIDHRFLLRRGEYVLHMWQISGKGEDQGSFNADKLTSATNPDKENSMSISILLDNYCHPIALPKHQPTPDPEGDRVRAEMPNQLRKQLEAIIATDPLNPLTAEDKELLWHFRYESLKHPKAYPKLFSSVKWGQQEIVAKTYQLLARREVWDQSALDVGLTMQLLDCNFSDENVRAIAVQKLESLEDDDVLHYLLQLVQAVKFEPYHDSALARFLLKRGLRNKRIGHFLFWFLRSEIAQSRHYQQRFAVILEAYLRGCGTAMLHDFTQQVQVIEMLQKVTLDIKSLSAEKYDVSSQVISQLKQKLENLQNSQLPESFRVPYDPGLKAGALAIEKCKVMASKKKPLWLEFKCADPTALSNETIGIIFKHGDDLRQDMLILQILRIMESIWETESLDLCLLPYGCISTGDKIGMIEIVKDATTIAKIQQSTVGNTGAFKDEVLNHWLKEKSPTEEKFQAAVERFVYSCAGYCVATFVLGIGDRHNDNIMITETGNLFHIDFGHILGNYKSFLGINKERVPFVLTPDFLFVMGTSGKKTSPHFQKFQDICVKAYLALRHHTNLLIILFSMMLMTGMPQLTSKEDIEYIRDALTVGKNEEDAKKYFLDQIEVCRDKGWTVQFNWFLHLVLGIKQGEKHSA
For assay [2], the target named is PI3Kδ (p110δ/p85α) Recombinant Human Protein (Homo sapiens (Human), UniProt O00329). In words: PI3Kδ scintillation proximity assay. It counts as biochemical. The following applies: 2 μM ATP, 20 μM PIP2.
Chain of PI3Kδ (p110δ/p85α) Recombinant Human Protein (O00329 whole entry): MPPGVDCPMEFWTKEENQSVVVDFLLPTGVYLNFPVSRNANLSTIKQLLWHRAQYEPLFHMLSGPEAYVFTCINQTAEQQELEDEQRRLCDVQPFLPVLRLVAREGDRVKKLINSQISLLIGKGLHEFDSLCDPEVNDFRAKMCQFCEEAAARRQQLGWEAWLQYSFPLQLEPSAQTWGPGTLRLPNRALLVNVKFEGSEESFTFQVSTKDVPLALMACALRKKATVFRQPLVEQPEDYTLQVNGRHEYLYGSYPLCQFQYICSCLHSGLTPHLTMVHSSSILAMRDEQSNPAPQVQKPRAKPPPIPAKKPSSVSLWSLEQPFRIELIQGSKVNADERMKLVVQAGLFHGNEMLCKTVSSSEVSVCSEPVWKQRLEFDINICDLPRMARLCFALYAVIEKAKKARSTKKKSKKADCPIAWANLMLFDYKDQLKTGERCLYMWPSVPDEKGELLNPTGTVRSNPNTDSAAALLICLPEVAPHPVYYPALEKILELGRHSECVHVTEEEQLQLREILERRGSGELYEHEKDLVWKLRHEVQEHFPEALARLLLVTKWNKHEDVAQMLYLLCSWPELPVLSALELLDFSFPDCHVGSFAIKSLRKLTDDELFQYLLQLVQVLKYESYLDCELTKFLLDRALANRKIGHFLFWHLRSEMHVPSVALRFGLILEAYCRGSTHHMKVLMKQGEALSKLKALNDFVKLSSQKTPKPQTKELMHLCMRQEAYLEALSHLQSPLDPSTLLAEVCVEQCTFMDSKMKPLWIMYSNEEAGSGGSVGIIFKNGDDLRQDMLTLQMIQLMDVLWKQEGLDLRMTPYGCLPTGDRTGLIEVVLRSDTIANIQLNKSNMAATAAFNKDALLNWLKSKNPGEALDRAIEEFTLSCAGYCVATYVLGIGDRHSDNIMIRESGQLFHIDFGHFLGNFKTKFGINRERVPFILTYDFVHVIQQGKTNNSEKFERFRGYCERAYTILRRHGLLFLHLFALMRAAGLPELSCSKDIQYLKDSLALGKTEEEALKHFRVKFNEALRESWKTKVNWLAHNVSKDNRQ
Chain of PI3Kδ (p110δ/p85α) Recombinant Human Protein (P27986 whole entry partner): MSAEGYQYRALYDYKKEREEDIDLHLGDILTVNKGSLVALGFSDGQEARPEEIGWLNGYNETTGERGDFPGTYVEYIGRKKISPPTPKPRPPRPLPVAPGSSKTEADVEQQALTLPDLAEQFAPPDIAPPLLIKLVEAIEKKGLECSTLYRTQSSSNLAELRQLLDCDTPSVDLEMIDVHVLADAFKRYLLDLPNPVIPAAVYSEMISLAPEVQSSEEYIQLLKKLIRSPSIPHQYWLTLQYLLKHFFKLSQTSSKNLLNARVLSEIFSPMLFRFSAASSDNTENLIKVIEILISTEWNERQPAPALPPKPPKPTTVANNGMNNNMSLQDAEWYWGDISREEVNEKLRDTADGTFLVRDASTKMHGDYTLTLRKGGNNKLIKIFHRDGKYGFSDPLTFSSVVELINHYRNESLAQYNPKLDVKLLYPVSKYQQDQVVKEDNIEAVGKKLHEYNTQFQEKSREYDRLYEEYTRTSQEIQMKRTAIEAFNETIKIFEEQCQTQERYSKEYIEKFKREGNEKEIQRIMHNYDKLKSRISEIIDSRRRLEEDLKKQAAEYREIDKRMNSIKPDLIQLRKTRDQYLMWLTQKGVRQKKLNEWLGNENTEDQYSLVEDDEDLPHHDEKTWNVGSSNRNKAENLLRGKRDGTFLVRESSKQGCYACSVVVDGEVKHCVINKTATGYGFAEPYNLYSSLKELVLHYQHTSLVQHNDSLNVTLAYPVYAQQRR
Assay [3] deals with Phosphorylated Ribosomal Protein S6 (RPS6) in THP-1 cells. The assay is described as follows: THP-1 RPS6 ELISA assay. It counts as cell-based, human. The following applies: 10 nM MCP-1, read-out: PI3Kγ_THP1_RPS6_ELISA IC50.
Where [4] appears, read: Homo sapiens, THP-1, THP-1 cells.

As to `CC(NC(=O)c1c(N)nn2cccnc12)c1cc(Cl)c2cncn2c1N1CC[C@@H](F)C1` (stereo partly drawn) [Example 75A, 2-Amino-N-(1-{8-chloro-5-[(3R)-3-fluoropyrrolidin-1-yl]imidazo[1,5-a]pyridin-6-yl}ethyl)pyrazolo[1,5-a]pyrimidine-3-carboxamide bistrifluoroacetate], the results for the 50% inhibitory concentration (IC50) in assay [1], in assay [2] and in assay [3] (setting [4]) were less than 100 nM, less than 500 nM and less than 500 nM, respectively.

For `CC(NC(=O)c1c(N)nn2cccnc12)c1cc(Cl)c2cncn2c1N1CC[C@H](F)C1` (stereo partly drawn) [Example 75B, 2-Amino-N-(1-{8-chloro-5-[(3S)-3-fluoropyrrolidin-1-yl]imidazo[1,5-a]pyridin-6-yl}ethyl)pyrazolo[1,5-a]pyrimidine-3-carboxamide bistrifluoroacetate], the results for the IC50 in assay [1], in assay [2] and in assay [3] (setting [4]) were less than 100 nM, less than 100 nM and less than 500 nM, respectively.

With `CC(NC(=O)c1c(N)nn2cccnc12)c1cc(Cl)c2cncn2c1N1CCC2(CC1)COC(=O)N2` (stereo not drawn) [Example 79, 2-Amino-N-{1-[8-chloro-5-(2-oxo-3-oxa-1,8-diazaspiro[4.5]dec-8-yl)imidazo[1,5-a]pyridin-6-yl]ethyl}pyrazolo[1,5-a]pyrimidine-3-carboxamide trifluoroacetate], the values for the half-maximal inhibitory concentration (IC50) in assay [1], in assay [2] and in assay [3] (setting [4]) were less than 100 nM, less than 500 nM and greater than 1000 nM, respectively.

`CC(NC(=O)c1c(N)nn2cccnc12)c1cc(Cl)c2cncn2c1N1CCC2(CC1)CNC(=O)O2` (stereo not drawn) [Example 80, 2-Amino-N-{1-[8-chloro-5-(2-oxo-1-oxa-3,8-diazaspiro[4.5]dec-8-yl)imidazo[1,5-a]pyridin-6-yl]ethyl}pyrazolo[1,5-a]pyrimidine-3-carboxamide trifluoroacetate]: the figures for the 50% inhibitory concentration (IC50) in assay [1], in assay [2] and in assay [3] (setting [4]) were less than 100 nM, less than 500 nM and less than 500 nM, respectively.

Turning to `COCCOc1c(C(C)NC(=O)c2c(N)nn3cccnc23)cc(Cl)c2cn[nH]c12` (stereo not drawn) [Example 81, 2-Amino-N-(1-(4-chloro-7-(2-methoxyethoxy)-1H-indazol-6-yl)ethyl)pyrazolo[1,5-a]pyrimidine-3-carboxamide trifluoroacetate], the concentration for half-maximal inhibition (IC50) is less than 100 nM in assay [1], less than 100 nM in assay [2] and less than 500 nM in assay [3] (setting [4]).

Regarding `COc1c(C(C)NC(=O)c2c(N)nn3cccnc23)cc(Cl)c2cn[nH]c12` (stereo not drawn) [Example 82, 2-Amino-N-(1-(4-chloro-7-methoxy-1H-indazol-6-yl)ethyl)pyrazolo[1,5-a]pyrimidine-3-carboxamide trifluoroacetate], the concentration for half-maximal inhibition (IC50) in assay [1] is less than 100 nM; in assay [2], less than 100 nM; in assay [3] (setting [4]), less than 500 nM.

Turning to `CC(NC(=O)c1c(N)nn2cccnc12)c1cc(Cl)c2cn[nH]c2c1OC(F)F` (stereo not drawn) [Example 83, 2-Amino-N-(1-(4-chloro-7-(difluoromethoxy)-1H-indazol-6-yl)ethyl)pyrazolo[1,5-a]pyrimidine-3-carboxamide trifluoroacetate], the 50% inhibitory concentration (IC50) in assay [1] was less than 100 nM; in assay [2] it was less than 100 nM; in assay [3] (setting [4]) it was less than 500 nM.

Take `CC(NC(=O)c1c(N)nn2cccnc12)c1cc(Cl)c2cn[nH]c2c1OCCO` (stereo not drawn) [Example 84, 2-Amino-N-(1-(4-chloro-7-(2-hydroxyethoxy)-1H-indazol-6-yl)ethyl)pyrazolo[1,5-a]pyrimidine-3-carboxamide trifluoroacetate]: the half-inhibitory concentration (IC50) in assay [1] was less than 100 nM; in assay [2], less than 100 nM; in assay [3] (setting [4]), less than 500 nM.

As for `CC(NC(=O)c1c(N)nn2cccnc12)c1cc(Cl)c2cn[nH]c2c1OCC(O)CO` (stereo not drawn) [Example 85, 2-Amino-N-(1-(4-chloro-7-(2,3-dihydroxypropoxy)-1H-indazol-6-yl)ethyl)pyrazolo[1,5-a]pyrimidine-3-carboxamide trifluoroacetate], the IC50 in assay [1] is less than 100 nM; in assay [2], less than 100 nM; in assay [3] (setting [4]) it was less than 500 nM.

`CCOc1c(C(C)NC(=O)c2c(N)nn3cccnc23)cc(Cl)c2c(C#N)n[nH]c12` (stereo not drawn) [Example 86, 2-Amino-N-(1-(4-chloro-3-cyano-7-ethoxy-1H-indazol-6-yl)ethyl)pyrazolo[1,5-a]pyrimidine-3-carboxamide trifluoroacetate]: the 50% inhibitory concentration (IC50) in assay [1] was less than 100 nM; in assay [2] it was less than 500 nM; in assay [3] (setting [4]), greater than 1000 nM.

Take `CC(NC(=O)c1c(N)nn2cccnc12)c1cc(Cl)c2cncn2c1N1CCC(C)(O)CC1` (stereo not drawn) [Example 87, 2-Amino-N-(1-(8-chloro-5-(4-hydroxy-4-methylpiperidin-1-yl)imidazo[1,5-a]pyridin-6-yl)ethyl)pyrazolo[1,5-a]pyrimidine-3-carboxamide trifluoroacetate]: the IC50 was less than 100 nM in assay [1], less than 500 nM in assay [2] and less than 500 nM in assay [3] (setting [4]).

Turning to `CC(NC(=O)c1c(N)nn2cccnc12)c1cc(Cl)c2cncn2c1N1CCC(C)(C#N)CC1` (stereo not drawn) [Example 88, 2-Amino-N-(1-(8-chloro-5-(4-cyano-4-methylpiperidin-1-yl)imidazo[1,5-a]pyridin-6-yl)ethyl)pyrazolo[1,5-a]pyrimidine-3-carboxamide trifluoroacetate], the IC50 was less than 100 nM in assay [1], less than 100 nM in assay [2] and less than 500 nM in assay [3] (setting [4]).

In the case of `CC(NC(=O)c1c(N)nn2cccnc12)c1cc(Cl)c2cncn2c1N1CCC(O)(C(F)(F)F)CC1` (stereo not drawn) [Example 89, 2-Amino-N-(1-(8-chloro-5-(4-hydroxy-4-(trifluoromethyl)piperidin-1-yl)imidazo[1,5-a]pyridin-6-yl)ethyl)pyrazolo[1,5-a]pyrimidine-3-carboxamide trifluroacetate], the results for the IC50 in assay [1], in assay [2] and in assay [3] (THP-1 cells) were less than 100 nM, less than 500 nM and less than 500 nM, respectively.

As to `COC1CCN(c2c(C(C)NC(=O)c3c(N)nn4cccnc34)cc(Cl)c3cn[nH]c23)C1` (stereo not drawn) [Example 91, 2-Amino-N-{1-[4-chloro-7-(3-methoxypyrrolidin-1-yl)-2H-indazol-6-yl]ethyl}pyrazolo[1,5-a]pyrimidine-3-carboxamide bis(trifluoroacetate)], the half-maximal inhibitory concentration (IC50) in assay [1] was less than 100 nM; in assay [2], less than 100 nM; in assay [3] (setting [4]), less than 1000 nM.

Take `CNS(=O)(=O)C1CCN(c2c(C(C)NC(=O)c3c(N)nn4cccnc34)cc(Cl)c3cn[nH]c23)C1` (stereo not drawn) [Example 92, 2-Amino-N-[1-(4-chloro-7-{3-[(methylamino)sulfonyl)pyrrolidin-1-yl}-2H-indazol-6-yl)ethyl]pyrazolo[1,5-a]pyrimidine-3-carboxamide]: the 50% inhibitory concentration (IC50) was less than 100 nM in assay [1], less than 500 nM in assay [2] and less than 500 nM in assay [3] (setting [4]).

For the molecule `CC(NC(=O)c1c(N)nn2cccnc12)c1cc(Cl)c2cn[nH]c2c1N1CCC(S(=O)(=O)N(C)C)CC1` (stereo not drawn) [Example 93, 2-Amino-N-[1-(4-chloro-7-{4-[(dimethylamino)sulfonyl]piperidin-1-yl}-2H-indazol-6-yl)ethyl]pyrazolo[1,5-a]pyrimidine-3-carboxamide], the IC50 in assay [1] is less than 100 nM; in assay [2], less than 2000 nM; in assay [3] (setting [4]), greater than 1000 nM.

On to `CC(NC(=O)c1c(N)nn2cccnc12)c1cc(Cl)c2cn[nH]c2c1N1CCS(=O)(=O)CC1` (stereo not drawn) [Example 94, 2-Amino-N-{1-[4-chloro-7-(1,1-dioxidothiomorpholin-4-yl)-2H-indazol-6-yl]ethyl}pyrazolo[1,5-a]pyrimidine-3-carboxamide trifluoroacetate], for which the figures for the IC50 in assay [1], in assay [2] and in assay [3] (setting [4]) were less than 100 nM, less than 500 nM and less than 500 nM, respectively.
